Reference: PubChem BioAssay (NCI)
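Compound exposure: 48 hours, 5 concentrations, 96-well plates. GI50 is the concentration that inhibits growth by half. At the TGI there is no net growth.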 Where a SMILES comes first, the peptide text is derived from it. [ ]: non-standard residue; d: D form. The star is where a group is joined. Ac5c = NC1(C(=O)O)CCCC1; Boc = CC(C)(C)OC(=O)*; tBu = CC(C)(C)*

Columns and labels:
Assay in all cases: NCI-60 cell line screen, 48 h; in the data active = GI50 below about 0.43 µM; inactive = the rest
[1] = test system: HOP-92 NSCLC
[2] = test system: NCI-H226 lung
[3] = test system: NCI-H23 lung
[4] = test system: UACC-257 melanoma
[5] = test system: 786-0 renal
[6] = test system: A498 renal
[7] = test system: A549 NSCLC
[8] = test system: ACHN renal
[9] = test system: CAKI-1 renal
[10] = test system: CCRF-CEM leukemia
[11] = test system: COLO 205 colon
[12] = test system: DU-145 prostate
[13] = test system: EKVX NSCLC
[14] = test system: HCC-2998 colon
[15] = test system: HCT-116 colon
[16] = test system: HCT-15 colon
[17] = test system: HOP-62 NSCLC
[18] = test system: HS 578T breast
[19] = test system: HT29 colon
[20] = test system: IGROV1 ovarian
[21] = test system: KM12 colon
[22] = test system: LOX IMVI melanoma
[23] = test system: M14 melanoma
[24] = test system: MCF7 breast
[25] = test system: MDA-MB-231 breast
[26] = test system: MDA-MB-435
[27] = test system: MOLT-4 leukemia
[28] = test system: NCI-H460 lung
[29] = test system: NCI-H522 lung
[30] = test system: NCI/ADR-RES ovarian
[31] = test system: OVCAR-3 ovarian
[32] = test system: OVCAR-4 ovarian
[33] = test system: OVCAR-5 ovarian
[34] = test system: OVCAR-8 ovarian
[35] = test system: RPMI-8226 leukemia
[36] = test system: RXF 393 renal
[37] = test system: SF-268 CNS
[38] = test system: SF-295 CNS
[39] = test system: SF-539 CNS
[40] = test system: SK-MEL-28 melanoma
[41] = test system: SK-MEL-5 melanoma
[42] = test system: SK-OV-3 ovarian
[43] = test system: SN12C renal
[44] = test system: SNB-75 CNS
[45] = test system: SR leukemia
[46] = test system: SW-620 colon
[47] = test system: T-47D breast
[48] = test system: TK-10 renal
[49] = test system: U251 CNS
[50] = test system: UACC-62 melanoma
[51] = test system: UO-31 renal
[52] = test system: BT-549 breast
[53] = test system: HL-60(TB) leukemia
[54] = test system: K-562 leukemia
[55] = test system: MALME-3M melanoma
[56] = test system: PC-3 prostate
[57] = test system: SK-MEL-2 melanoma
[58] = test system: SNB-19 CNS

CC(OC(C)(C)C)C(NC(=O)C(CCCCNC(=O)OC(C)(C)C)NC(=O)C(Cc1c[nH]c2ccccc12)NC(=O)C(N)Cc1ccccc1)C(=O)NC(Cc1ccccc1)C(=O)NC1(C(=O)O)CCCC1 (stereo unspecified) (H-FWK(Boc)T(tBu)F[Ac5c]-OH; configuration not given here)
> 100 µM: TGI [1] | TGI [2] | TGI [3] | TGI [4]

COc1ccc(-n2c(-c3ccccc3)cc(-c3cccs3)c2-c2cccs2)cc1
32.7 µM: TGI [10]
> 100 µM: TGI [5] | TGI [6] | TGI [7] | TGI [8] | TGI [9] | TGI [11] | TGI [12] | TGI [13] | TGI [14] | TGI [15] | TGI [16] | TGI [17] | TGI [1] | TGI [18] | TGI [19] | TGI [20] | TGI [21] | TGI [22] | TGI [23] | TGI [24] | TGI [25] | TGI [26] | TGI [27] | TGI [2] | TGI [28] | TGI [29] | TGI [30] | TGI [31] | TGI [32] | TGI [33] | TGI [34] | TGI [35] | TGI [36] | TGI [37] | TGI [38] | TGI [39] | TGI [40] | TGI [41] | TGI [42] | TGI [43] | TGI [44] | TGI [45] | TGI [46] | TGI [47] | TGI [48] | TGI [49] | TGI [4] | TGI [50] | TGI [51]
95.7 µM: TGI [3]

CN(C)c1ccc(C=Nc2ccc(-c3nc4ccccc4o3)cc2)cc1
83.1 µM: TGI [57]
69.1 µM: TGI [53]
47.3 µM: TGI [14]
58.3 µM: TGI [47]
97.9 µM: TGI [56]
78.8 µM: TGI [27]
29.8 µM: TGI [41]
87.1 µM: TGI [13]
51.4 µM: TGI [31]
> 100 µM: TGI [5] | TGI [6] | TGI [7] | TGI [8] | TGI [52] | TGI [11] | TGI [12] | TGI [15] | TGI [16] | TGI [17] | TGI [1] | TGI [18] | TGI [19] | TGI [20] | TGI [54] | TGI [21] | TGI [22] | TGI [23] | TGI [55] | TGI [24] | TGI [25] | TGI [26] | TGI [3] | TGI [29] | TGI [30] | TGI [32] | TGI [33] | TGI [34] | TGI [37] | TGI [39] | TGI [40] | TGI [42] | TGI [43] | TGI [58] | TGI [44] | TGI [45] | TGI [46] | TGI [48] | TGI [49] | TGI [50] | TGI [51]
98.7 µM: TGI [28]
72.5 µM: TGI [4]

COc1cccc(C2C3=C(COC3=O)N(CCO)c3cc4c(cc32)CCC4)c1 (stereo unspecified)
0.198 µM: TGI [11]
> 17.1 µM: TGI [34]
> 32.6 µM: TGI [43]
0.0165 µM: TGI [29]
0.436 µM: TGI [41]
0.23 µM: TGI [30]
> 50 µM: TGI [8] | TGI [9] | TGI [10] | TGI [13] | TGI [55] | TGI [32] | TGI [33] | TGI [56] | TGI [40] | TGI [46] | TGI [48] | TGI [4] | TGI [50]
> 22.2 µM: TGI [16]
4.02 µM: TGI [3]
0.239 µM: TGI [57]
inactive: GI50 [55] 0.915 µM | GI50 [40] 13.4 µM | GI50 [48] 2.13 µM | GI50 [4] 32.6 µM | GI50 [50] 34.2 µM
0.321 µM: TGI [12] | TGI [58]
1.19 µM: TGI [52]
0.692 µM: TGI [15]
11.5 µM: TGI [49]
> 37.1 µM: TGI [22]
1.94 µM: TGI [27]
1.07 µM: TGI [25]
0.208 µM: TGI [23]
0.443 µM: TGI [21]
0.0483 µM: TGI [6]
0.0692 µM: TGI [20]
10.8 µM: TGI [5]
> 16 µM: TGI [17]
0.165 µM: TGI [45]
0.314 µM: TGI [53]
0.319 µM: TGI [28]
0.397 µM: TGI [44]
32.4 µM: TGI [18]
8.81 µM: TGI [54]
> 18.1 µM: TGI [24]
1.31 µM: TGI [14]
0.543 µM: TGI [38]
> 27.8 µM: TGI [2]
5.93 µM: TGI [37]
36.6 µM: TGI [47]
0.156 µM: TGI [19]
0.0334 µM: TGI [26]
active: GI50 [5] 0.0731 µM | GI50 [6] 0.0154 µM | GI50 [7] 0.0982 µM | GI50 [8] 0.0622 µM | GI50 [52] 0.0819 µM | GI50 [9] 0.132 µM | GI50 [10] 0.122 µM | GI50 [11] 0.0584 µM | GI50 [12] 0.0884 µM | GI50 [13] 0.133 µM | GI50 [14] 0.0795 µM | GI50 [15] 0.0526 µM | GI50 [16] 0.122 µM | GI50 [53] 0.111 µM | GI50 [17] 0.147 µM | GI50 [18] 0.0285 µM | GI50 [19] 0.042 µM | GI50 [20] 0.0169 µM | GI50 [54] 0.0279 µM | GI50 [21] 0.0219 µM | GI50 [22] 0.0934 µM | GI50 [23] 0.0358 µM | GI50 [24] 0.0193 µM | GI50 [25] 0.142 µM | GI50 [26] 0.0131 µM | GI50 [27] 0.162 µM | GI50 [2] 0.274 µM | GI50 [3] 0.0604 µM | GI50 [28] 0.0426 µM | GI50 [29] 0.00644 µM | GI50 [30] 0.0556 µM | GI50 [31] 0.018 µM | GI50 [32] 0.114 µM | GI50 [33] 0.344 µM | GI50 [34] 0.098 µM | GI50 [56] 0.0577 µM | GI50 [35] 0.127 µM | GI50 [37] 0.0731 µM | GI50 [38] 0.0148 µM | GI50 [39] 0.0457 µM | GI50 [57] 0.0255 µM | GI50 [41] 0.0204 µM | GI50 [42] 0.0663 µM | GI50 [43] 0.269 µM | GI50 [58] 0.0468 µM | GI50 [44] 0.0236 µM | GI50 [45] 0.015 µM | GI50 [46] 0.0252 µM | GI50 [47] 0.0832 µM | GI50 [49] 0.143 µM | GI50 [51] 0.0192 µM
0.0591 µM: TGI [31]
11.6 µM: TGI [35]
1.44 µM: TGI [51]
